Assay results reported in the NIST ThermoML archive (doi:10.1016/j.fluid.2019.05.003).

Assay: xn = mol fraction of the nth substance listed
Conditions: 101 kPa, Liquid; for mass density: Vibrating tube method; for viscosity: Falling or rolling sphere viscometry

CC[n+]1ccccc1.[Br-] [1-ethylpyridinium bromide] + O
Conditions	mass density [kg/m3]	viscosity [mPa·s]
323.15 K, x1 = 0.027	1058.9	–
323.15 K, x1 = 0.049	1100.6	–
323.15 K, x1 = 0.063	1125.8	–
323.15 K, x1 = 0.086	1159.7	–
323.15 K, x1 = 0.101	1179	–
323.15 K, x1 = 0.147	1227.7	–
323.15 K, x1 = 0.184	1257.9	–
323.15 K, x1 = 0.213	1277.5	–
323.15 K, x1 = 0.25	1298.1	–
323.15 K, x1 = 0.299	1319.8	–
323.15 K, x1 = 0.341	1335	–
323.15 K, x1 = 0.401	1353.7	–
323.15 K, x1 = 0.451	1364.3	–
328.15 K, x1 = 0.027	1056.7	0.695
328.15 K, x1 = 0.049	1097.6	0.846
328.15 K, x1 = 0.063	1122.7	0.961
328.15 K, x1 = 0.086	1156.6	1.18
328.15 K, x1 = 0.101	1175.8	1.332
328.15 K, x1 = 0.147	1224.4	1.9
328.15 K, x1 = 0.184	1254.4	2.439
328.15 K, x1 = 0.213	1274	2.977
328.15 K, x1 = 0.25	1294.7	3.973
328.15 K, x1 = 0.299	1316.3	4.663
328.15 K, x1 = 0.341	1331.6	5.733
328.15 K, x1 = 0.401	1350.2	8.204
328.15 K, x1 = 0.451	1360.8	10.13
333.15 K, x1 = 0.027	1054.6	0.644
333.15 K, x1 = 0.049	1095.3	0.787
333.15 K, x1 = 0.063	1119.5	0.889
333.15 K, x1 = 0.086	1153.8	1.088
333.15 K, x1 = 0.101	1172.5	1.222
333.15 K, x1 = 0.147	1221	1.737
333.15 K, x1 = 0.184	1251	2.216
333.15 K, x1 = 0.213	1270.6	2.698
333.15 K, x1 = 0.25	1291.2	3.554
333.15 K, x1 = 0.299	1312.9	4.186
333.15 K, x1 = 0.341	1328.1	5.129
333.15 K, x1 = 0.401	1346.8	7.29
333.15 K, x1 = 0.451	1357.4	8.99
338.15 K, x1 = 0.027	1052.4	0.612
338.15 K, x1 = 0.049	1092.6	0.734
338.15 K, x1 = 0.063	1116.8	0.825
338.15 K, x1 = 0.086	1150.9	1.006
338.15 K, x1 = 0.101	1169.1	1.118
338.15 K, x1 = 0.147	1217.5	1.582
338.15 K, x1 = 0.184	1247.5	2.019
338.15 K, x1 = 0.213	1267.1	2.42
338.15 K, x1 = 0.25	1287.7	3.118
338.15 K, x1 = 0.299	1309.4	3.788
338.15 K, x1 = 0.341	1324.7	4.616
338.15 K, x1 = 0.401	1343.4	6.5
338.15 K, x1 = 0.451	1354	8.008
343.15 K, x1 = 0.027	1050.3	0.58
343.15 K, x1 = 0.049	1089.9	0.689
343.15 K, x1 = 0.063	1113.8	0.771
343.15 K, x1 = 0.086	1147.9	0.941
343.15 K, x1 = 0.101	1166.3	1.045
343.15 K, x1 = 0.147	1214	1.465
343.15 K, x1 = 0.184	1244	1.855
343.15 K, x1 = 0.213	1263.5	2.245
343.15 K, x1 = 0.25	1284.2	2.805
343.15 K, x1 = 0.299	1305.9	3.416
343.15 K, x1 = 0.341	1321.2	4.159
343.15 K, x1 = 0.401	1339.9	6.011
343.15 K, x1 = 0.451	1350.6	7.3
348.15 K, x1 = 0.027	1048.2	0.549
348.15 K, x1 = 0.049	1087.2	0.649
348.15 K, x1 = 0.063	1110.9	0.724
348.15 K, x1 = 0.086	1144.9	0.886
348.15 K, x1 = 0.101	1163.2	0.982
348.15 K, x1 = 0.147	1211.1	1.355
348.15 K, x1 = 0.184	1240.4	1.706
348.15 K, x1 = 0.213	1260	2.06
348.15 K, x1 = 0.25	1280.6	2.589
348.15 K, x1 = 0.299	1302.4	3.124
348.15 K, x1 = 0.341	1317.7	3.785
348.15 K, x1 = 0.401	1336.5	5.338
348.15 K, x1 = 0.451	1347.1	6.657
